Measured values: PubChem BioAssay AID1259407 (Chemical Carcinogenesis Research Information System (CCRIS), 2018)
The source made the active and inactive calls. The rule behind the calls is not given here.

Test system: CCRIS mutagenicity, Ames/micronucleus/aberration tests
Test: CCRIS mutagenicity studies
[1] = Test System: AMES SALMONELLA TYPHIMURIUM, Strain/Indicator: TA98, Metabolic Activation: NONE, Method: PREINCUBATION

CC(=O)NNc1ccc(CO)cc1
mutagenic call (Test System: AMES SALMONELLA TYPHIMURIUM, Strain/Indicator: TA104, Metabolic Activation: MUSHROOM TYROSINASE, Method: PREINCUBATION): active; positive | mutagenic call (Test System: AMES SALMONELLA TYPHIMURIUM, Strain/Indicator: TA104, Metabolic Activation: NONE, Method: PREINCUBATION): inactive; negative | mutagenic call (Test System: AMES SALMONELLA TYPHIMURIUM, Strain/Indicator: TA104, Metabolic Activation: RAT, LIVER, CYTOSOL AND MICROSOMES, AROCLOR 1254, NADPH, Method: PREINCUBATION): active; positive | mutagenic call (Test System: AMES SALMONELLA TYPHIMURIUM, Strain/Indicator: TA104, Metabolic Activation: RAT, LIVER, CYTOSOL AND MICROSOMES, AROCLOR 1254, Method: PREINCUBATION): inactive; negative | mutagenic call (Test System: AMES SALMONELLA TYPHIMURIUM, Strain/Indicator: TA104, Metabolic Activation: RAT, LIVER, CYTOSOL, AROCLOR 1254, Method: PREINCUBATION): inactive; negative | mutagenic call (Test System: AMES SALMONELLA TYPHIMURIUM, Strain/Indicator: TA104, Metabolic Activation: RAT, LIVER, MICROSOMES, AROCLOR 1254, NADPH, Method: PREINCUBATION): inactive; negative | mutagenic call (Test System: AMES SALMONELLA TYPHIMURIUM, Strain/Indicator: TA1535, Metabolic Activation: NONE, Method: PREINCUBATION): inactive; negative | mutagenic call (Test System: AMES SALMONELLA TYPHIMURIUM, Strain/Indicator: TA1535, Metabolic Activation: RAT, LIVER, S-9, AROCLOR 1254, Method: PREINCUBATION): inactive; negative | mutagenic call (Test System: AMES SALMONELLA TYPHIMURIUM, Strain/Indicator: TA1537, Metabolic Activation: NONE, Method: PREINCUBATION): active; positive | mutagenic call (Test System: AMES SALMONELLA TYPHIMURIUM, Strain/Indicator: TA1537, Metabolic Activation: RAT, LIVER, S-9, AROCLOR 1254, Method: PREINCUBATION): inactive; negative

O=S(=O)(O)Oc1ccc2ccc3c4ccccc4cc4ccc1c2c43
mutagenic call [1]: inactive; negative | mutagenic call (Test System: AMES SALMONELLA TYPHIMURIUM, Strain/Indicator: TA98, Metabolic Activation: RAT, LUNG, S-9, Method: PREINCUBATION): inactive; negative

COc1ccc2c(c1O)C(=O)c1ccccc1C2=O
mutagenic call [1]: inactive; negative | mutagenic call (Test System: AMES SALMONELLA TYPHIMURIUM, Strain/Indicator: TA98, Metabolic Activation: RAT, LIVER, S-9, PCB, Method: PREINCUBATION): inactive; negative | mutagenic call (Test System: AMES SALMONELLA TYPHIMURIUM, Strain/Indicator: TA100, Metabolic Activation: NONE, Method: PREINCUBATION): inactive; negative | mutagenic call (Test System: AMES SALMONELLA TYPHIMURIUM, Strain/Indicator: TA100, Metabolic Activation: RAT, LIVER, S-9, PCB, Method: PREINCUBATION): inactive; negative

CN(C)c1ccc(N=Nc2cccc3ccccc23)cc1
mutagenic call (Test System: AMES SALMONELLA TYPHIMURIUM, Strain/Indicator: TA98, Metabolic Activation: HAMSTER, LIVER, S-9, AROCLOR 1254, Method: STANDARD PLATE): active; positive | mutagenic call (Test System: AMES SALMONELLA TYPHIMURIUM, Strain/Indicator: TA98, Metabolic Activation: HAMSTER, LIVER, S-9, Method: PREINCUBATION (PRIVAL METHOD)): active; positive | mutagenic call (Test System: AMES SALMONELLA TYPHIMURIUM, Strain/Indicator: TA98, Metabolic Activation: RAT, LIVER, S-9, AROCLOR 1254, HAMSTER, LIVER, S-9, AROCLOR 1254, Method: STANDARD PLATE): active; positive | mutagenic call (Test System: AMES SALMONELLA TYPHIMURIUM, Strain/Indicator: TA100, Metabolic Activation: HAMSTER, LIVER, S-9, AROCLOR 1254, Method: STANDARD PLATE): active; positive | mutagenic call (Test System: AMES SALMONELLA TYPHIMURIUM, Strain/Indicator: TA100, Metabolic Activation: HAMSTER, LIVER, S-9, Method: PREINCUBATION (PRIVAL METHOD)): active; positive | mutagenic call (Test System: AMES SALMONELLA TYPHIMURIUM, Strain/Indicator: TA1535, Metabolic Activation: RAT, LIVER, S-9, AROCLOR 1254, HAMSTER, LIVER, S-9, AROCLOR 1254, Method: STANDARD PLATE): active; positive | mutagenic call (Test System: AMES SALMONELLA TYPHIMURIUM, Strain/Indicator: TA1538, Metabolic Activation: RAT, LIVER, S-9, AROCLOR 1254, HAMSTER, LIVER, S-9, AROCLOR 1254, Method: STANDARD PLATE): active; positive | mutagenic call (Test System: MOUSE LYMPHOMA, Strain/Indicator: L5178Y (TK+/TK-), Metabolic Activation: RAT, LIVER, S-9, AROCLOR 1254, Method: SUSPENSION/PLATE): active; positive. reevaluation of results: positive | mutagenic call (Test System: Mouse lymphoma, Strain/Indicator: L5178Y (tk+/tk-), Metabolic Activation: None, Method: Suspension/plate): active; positive
